For this experiment, the target named is 5-hydroxytryptamine receptor 7 (Homo sapiens, UniProt P34969). In words: A similar stock of the reference compound chlorpromazine is also prepared as a positive control. Eleven dilutions (5× assay concentration) of the compound of the disclosure and chlorpromazine are prepared in the Assay Buffer by serial dilution to yield final corresponding assay concentrations ranging from 10 pM to 10 μM.A stock concentration of 5 nM [3H]LSD (lysergic acid diethyl amide) is prepared in 50 mM Tris-HCl, 10 mM MgCl2, 1 mM EDTA, pH 7.4 (Assay Buffer). Aliquots (50 μl) of radioligand are dispensed into the wells of a 96-well plate containing 100 μl of Assay Buffer. Duplicate 50-μl aliquots of the compound of the disclosure test and chlorpromazine positive control reference compound serial dilutions are added.Membrane fractions of cells expressing recombinant 5HT7 receptors (50 μL) are dispensed into each well. […].

The structures appear in SMILES notation.

Broadly, the IC50 is the concentration at which inhibition is half-maximal.

5-hydroxytryptamine receptor 7, sequence (P34969 whole entry): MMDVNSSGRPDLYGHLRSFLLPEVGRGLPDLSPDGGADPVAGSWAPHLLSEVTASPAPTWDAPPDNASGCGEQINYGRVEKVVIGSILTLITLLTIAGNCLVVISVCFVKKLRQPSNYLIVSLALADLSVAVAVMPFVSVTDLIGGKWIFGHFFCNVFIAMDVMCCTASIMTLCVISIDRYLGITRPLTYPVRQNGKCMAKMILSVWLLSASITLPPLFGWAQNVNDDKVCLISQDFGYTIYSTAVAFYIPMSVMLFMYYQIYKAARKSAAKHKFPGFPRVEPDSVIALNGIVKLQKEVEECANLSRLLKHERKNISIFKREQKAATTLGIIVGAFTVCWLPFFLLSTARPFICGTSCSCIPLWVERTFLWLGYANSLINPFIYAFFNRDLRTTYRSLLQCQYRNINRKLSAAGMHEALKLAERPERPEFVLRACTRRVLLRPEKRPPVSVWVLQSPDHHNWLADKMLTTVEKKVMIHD

For the compound `CCC1(CC)CC(CCN2CCC(C(O)(c3ccccc3)c3ccccc3)CC2)OC1=O` (stereo unspecified), the IC50 is 3.16 µM.
